These results are taken from publication PMC8304783, “Antiadhesive Properties of Imidazolium Ionic Liquids Based on (−)-Menthol Against Candida spp” (International Journal of Molecular Sciences, 2021).

Molecules are shown by their SMILES.

Holding throughout (format): cell-based
One test has as its system C. albicans isolates. Kind of test: Detachment of adherent clinical isolates from polystyrene (isolates taken together). As to conditions: in most cases, 1, 2 and 4 times MIC90. The method, then:
(§1) Post-adherence treatment with ILs was performed in a similar manner to that described previously by our team. Candida spp. suspensions were prepared by centrifuging YPD-grown cultures and resuspending fungal mass in PBS to an OD600 = 0.6. Sterile 96-well plates were inoculated with the prepared suspensions and incubated for 2 h at 37 °C to induce fungal adhesion. Afterwards, adherent cells were washed with PBS to remove planktonic cells and treated with ILs (concentrations equivalent to 1, 2 or 4 × MIC90 for each fungi) for 2 h at 37 °C. Then, each well was washed with PBS and adherent cells were fixed with 0.1% CV solution for 5 min, and washed with PBS. Cells were then treated with a solution of isopropanol 0.04 N HCL with 0.1% SDS to permeabilize adherent cells and release the CV dye. The absorbance of CV was measured at 590 nm (ASYS UVM 340 Biogenet). The percentage of cells that were removed was determined in comparison to adherent cells treated with PBS only (designated 100% adhesion).
(§2) The effect of imidazolium ILs based on of (1R,2S,5R)‐(−)‐menthol was evaluated on clinical, fluconazole(FLC)‐resistant and FLC‐sensitive C. albicans isolates. C. albicans Gu4 and Gu5 strains were isolated from a patient before and after fluconazole administration, respectively.
(§3) Azole‐resistance of Gu5 origins in overexpression of CDR1 and CD R2. C. albicans B3 and B4 strains […]

A further test relates to C. albicans B3. Nature of the test: Detachment of adherent clinical isolates from polystyrene. The note with it: isolate B3 on polystyrene; highest concentration (4 x MIC). As to the method:
as §1, §2, §3
(§4) Azole‐resistance of B4 results from overexpression of MDR1. The strains were generous gifts from Prof. S. Milewski (Gdańsk, Poland) and Prof. J. Morschhäuser (Wurzburg, Germany). They are originally referenced in: Franz, R., Ruhnke, M. & Morschhäuser, J. Molecular aspects of fluconazole resistance development in Candida albicans. Mycoses 42, 453–458, (1999).
(§5) Table S1 summarizes the minimal inhibitory and fungicidal concentration (MIC90 and MFC, respectively) values of ILs tested against the C. albicans isolates (for ILs structures see section 5.2. in the mai n text). No difference in case of MIC90 values between the strains was observed. […]

The test system of another test is C. albicans B4. Described as above. As to conditions: isolate B4 on polystyrene; highest concentration (4 x MIC). The method, then:
as §1, §2, §3, §4, §5

A further test relates to C. albicans Gu4. Described as above. The note with it: isolate Gu4 on polystyrene; regardless of the concentration (1, 2, 4 x MIC). The method, then:
as §1, §2, §3, §4, §5

On to `CCCCCCCCCn1cc[n+](CO[C@@H]2C[C@H](C)CC[C@H]2C(C)C)c1` [1a, 1-[(1R,2S,5R)-(−)-menthoxymethyl]-3-nonylimidazolium chloride], for which the “Influence on adherent properties of C. albicans isolates” value in the test on C. albicans isolates is “did not influence”.

Take `CCCCCCCCCCn1cc[n+](CO[C@@H]2C[C@H](C)CC[C@H]2C(C)C)c1` [1b, 3-decyl-1-[(1R,2S,5R)-(−)-menthoxymethyl]imidazolium chloride]: the Reduction of adhesion with C. albicans B3 is ~ 10%; in the test with C. albicans B4 it was ~ 10%; with C. albicans Gu4, ~ 20%.
